Columns and labels:
[1] = system: CC1(C)S[C@@H]2[C@H](NC(=O)[C@H](N)c3ccccc3)C(=O)N2[C@H]1C(=O)O; assay: Spectrophotometric substrate hydrolysis, steady-state kinetics; assay type: biochemical, Bacillus cereus; conditions: other: Wild-type, 50 mM potassium phosphate buffer pH 7.0, 20° C.
Experimental: (§1) The hydrolytic activities of the wild-type β-lactamase I, E166C and E166Cf mutants towards penicillin G, penicillin V and ampicillin (Sigma) were monitored by the spectrophotometric method. The spectrophotometric measurements were performed on a Perkin Elmer Lambda Bio20 UV/Vis spectrometer. Substrate hydrolysis was monitored at a fixed wavelength: 235 nm for ampicillin, 232 nm for penicillin G and penicillin V. The initial rate of substrate hydrolysis occurring within 5 min was determined in duplicate at each of 6 different substrate concentrations in 50 mM potassium phosphate buffer (pH 7.0) at 20° C. The initial rates determined were then treated as described in Reference 5 to calculate the Michaelis constants (Km) and turnover numbers (kcat) using non-linear regression analysis (equation 1):
(§2) [formula] where v is the initial rate of substrate hydrolysis, Vmax the maximum rate of reaction, [S] the initial substrate concentration, Km the Michaelis constant and kcat=Vmax/[Enzyme].
(§3) The measured steady-state kinetic parameters for hydrolysis of penicillin G, penicillin V and ampicillin by the wild-type β-lactamase I, E166C and E166Cf mutants are summarized in Table 1.

[2] = biological target: T1, E. coli TEM-1 β-lactamase (Escherichia coli, UniProt P62593); assay: Drug screening: E166Cf fluorescence in presence of bacterial β-lactamase culture; assay type: biochemical; design: key: −: Decline in fluorescence signal (presence of beta-lactam hydrolysis); +: No decline in fluorescence signal (absence of beta-lactam hydrolysis); conditions: E. coli TEM-1 culture, undiluted; antibiotic 1.0×10^−4 M; E166Cf 1.2×10^−7 M
T1 construct: made in house; host or cells: E. coli BL21(DE3); whole overnight culture used undiluted, not purified
Experimental: (§4) The use of the E166Cf enzyme in screening bacterial β-lactamases against various β-lactam antibiotics was investigated. The principle of our method is that when both E166Cf and bacterial β-lactamase are incubated with ‘β-lactamase-unstable’ antibiotics, the fluorescence of the E166Cf enzyme will be suppressed because of the greater catalytic efficiency of the bacterial enzyme. In contrast, when bacterial β-lactamases are screened against ‘β-lactamase-resistant’ antibiotics, the fluorescence of the E166Cf enzyme will be enhanced because of the poor hydrolytic activity of the bacterial enzyme. Thus, any β-lactam antibiotic that causes the labeled enzyme to increase its fluorescence intensity in the presence of bacterial β-lactamases can be used in clinical treatments.
The TEM-1 β-lactamase was expressed in E. coli. BL21(DE3). Preparation of the TEM-1 β-lactamase was performed as follows. A bacterial strain was streaked on an agar plate containing 100 μg/ml ampicillin, and the plate was incubated at 37° C. for 24 h. A single bacterial colony from the plate was inoculated into 100 ml of sterilized LB broth (28 g/l) which was then incubated at 37° C. with shaking at 280 rpm overnight. After overnight incubation, the bacterial culture was harvested and stored at −20° C.
(§5) Fluorescence measurements of the E166Cf enzyme in the presence of bacterial cultures and β-lactam antibiotics were performed on a FLUOstar microplate reader (BMG Labtechnologies) equipped with two sample injectors. Excitation and emission filters of 485 and 520 nm respectively were used. For B. cereus penPC β-lactamase, B. licheniformis penP β-lactamase and B. cereus β-lactamase II, the labeled enzymes were mixed with the bacterial cultures, and the mixtures were made up to 300 μl with 50 mM phosphate buffer (pH 7.0) in a 96-well microtiter plate (Corning Costar). For the purpose of comparison, B. subtilis cultures, which produced no β-lactamase, were set up as negative controls. For E. coli. TEM-1 β-lactamase, the labeled enzymes were mixed with the bacterial cultures without dilution. E. coli. cultures, which produced no β-lactamase, were set up as negative controls for comparison. The antibiotics were then added to the bacterial samples by the injectors.
(§6) The results from the time-resolved fluorescence measurements of the labeled enzyme (1.2×10^−7 M) in the presence of various bacterial cultures and β-lactam antibiotics (1.0×10^−4 M) are shown in FIGS. 23 to 26.

E166Cf enzyme [3] = biological target: T2, E166Cf enzyme (Bacillus cereus, UniProt P00809, E185C); assay: Time-resolved fluorescence of E166Cf enzyme with penicillins and cephalosporins; assay type: biochemical; conditions: E166Cf 1.2×10^−7 M, 50 mM phosphate buffer pH 7.0; up to one hour
T2 construct: made in house; host or cells: B. subtilis 1A304 (φ105MU331); then labelled chemically
T2 sequence (P00809 28-306 E185C): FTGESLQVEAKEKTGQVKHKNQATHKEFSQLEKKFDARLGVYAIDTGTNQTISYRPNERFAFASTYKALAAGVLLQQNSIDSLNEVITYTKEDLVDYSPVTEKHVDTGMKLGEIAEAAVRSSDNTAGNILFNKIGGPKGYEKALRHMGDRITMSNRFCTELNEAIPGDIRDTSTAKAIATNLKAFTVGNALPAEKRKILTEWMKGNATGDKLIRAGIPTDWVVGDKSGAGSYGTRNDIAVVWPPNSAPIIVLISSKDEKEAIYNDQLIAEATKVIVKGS
Experimental: Fluorescence measurements of the E166Cf enzyme in the presence of penicillin G, penicillin V, ampicillin, cefuroxime, cefoxitin and moxalactam were performed on a Perkin Elmer LS50B spectrofluorometer. For time-resolved fluorescence measurement, excitation and emission wavelengths were set at 494 and 515 nm respectively. Both excitation and emission slit widths were set at 5 nm. All fluorescence measurements were performed at room temperature.
With penicillin G as substrate, the fluorescence signal of the E166Cf enzyme (1.2×10^−7 M) at 515 nm in 50 mM phosphate buffer (pH 7.0) increases as a function of the antibiotic concentration (FIG. 4). The time-resolved fluorescence signals of the E166Cf enzyme at 515 nm were also measured with various concentrations of penicillin G (FIG. 5). At low antibiotic concentration (1.0×10^−7 and 1.0×10^−6 M), the fluorescence intensity of the E166Cf enzyme increases gradually and then declines. At high antibiotic concentration (1.0×10^−5 and 1.0×10^−4 M), the fluorescence signal increases instantaneously and levels off to a plateau. The fluorescence signal stays at the plateau for a certain length of time and then declines afterwards. Similar results were obtained with penicillin V and ampicillin (FIGS. 6 and 7).
With cefuroxime, cefoxitin and moxalactam as substrates, the fluorescence intensities of the E166Cf enzyme (1.2×10^−7 M) at 515 nm in 50 mM phosphate buffer (pH 7.0) also increase as a function of antibiotic concentration (FIGS. 8 to 10).
(§7) At high substrate concentration (1.0×10^−5 and 1.0×10^−4 M), the penicillin substrates rapidly occupy the active sites to form the ES complexes, thus switching on the fluorescence of the fluorescein labels instantaneously. […] This can be verified by the fact that the ‘plateau time’ (8 and 22 min for 1.0×10^−5 and 1.0×10^−4 M penicillin G respectively) is consistent with the ‘substrate hydrolysis time’ determined by spectrophotometric assays (7 and 20 min for 1.0×10^−5 and 1.0×10^−4 M penicillin G respectively). When most of the penicillin substrates have been hydrolyzed to carboxylic acids, the fluorescence signal of the labeled enzyme will decline subsequently.

B. cereus β-lactamase II = biological target: T3, B. cereus β-lactamase II (Bacillus cereus, UniProt P04190); assay: Drug screening: E166Cf fluorescence in presence of bacterial β-lactamase culture; assay type: biochemical; design: key: −: Decline in fluorescence signal (presence of beta-lactam hydrolysis); +: No decline in fluorescence signal (absence of beta-lactam hydrolysis); conditions: antibiotic 1.0×10^−4 M, E166Cf 1.2×10^−7 M
T3 construct: made in house; host or cells: B. subtilis 1A304 (φ105MU331); whole culture used, not purified
Experimental: as §4
(§8) The β-lactamase II, penPC β-lactamase and penP β-lactamase were expressed in B. subtilis 1A304 (φ105MU331). These enzymes were prepared according to the procedures described previously (Reference 7: Thomwell, S. J. East, A. K., Errington, J. An efficient expression and secretion system based on Bacillus subtilis phage phi 105 and its uses for the production for B. cereus β-lactamase I. (1993) Gene 133, 47-53) with slight modifications. A bacterial strain was streaked on an agar plate containing 5 μg/ml chloramphenicol, and the plate was incubated at 37° C. for 24 h. A single bacterial colony from the agar plate was inoculated into 100 ml of sterilized BHY medium (37 g/l brain heart infusion and 5 g/l yeast extract) which was then incubated at 37° C. with shaking at 300 rpm overnight. About 7 ml of overnight inoculum was added to a baffled conical flask containing 100 ml of sterilized BHY medium. The inoculated medium was incubated at 37° C. with shaking at 300 rpm. When the optical density of the bacterial culture at 600 nm reached 3.5 to 4.0, the bacterial culture was heated in a water bath at 51° C. for 5 min. Afterwards, the bacterial culture was incubated at 37° C. with shaking at 300 rpm for a further 6 h. The bacterial culture was then harvested and stored at −20° C.
as §5, §6

[4] = biological target: T4, B. licheniformis penP β-lactamase (Bacillus licheniformis, UniProt P00808); assay: as above; assay type: biochemical; design: key: −: Decline in fluorescence signal (presence of beta-lactam hydrolysis); +: No decline in fluorescence signal (absence of beta-lactam hydrolysis); conditions: antibiotic 1.0×10^−4 M, E166Cf 1.2×10^−7 M
T4 construct: made in house; host or cells: B. subtilis 1A304 (φ105MU331); whole culture used, not purified
Experimental: as §4, §8, §5, §6

[5] = biological target: T5, B. cereus penPC β-lactamase (Bacillus cereus, UniProt P00809); assay: as above; assay type: biochemical; design: key: −: Decline in fluorescence signal (presence of beta-lactam hydrolysis); +: No decline in fluorescence signal (absence of beta-lactam hydrolysis); conditions: antibiotic 1.0×10^−4 M, E166Cf 1.2×10^−7 M
T5 construct: made in house; host or cells: B. subtilis 1A304 (φ105MU331); whole culture used, not purified
Experimental: as §4, §8, §5, §6

E166Cf enzyme [6] = biological target: T2, E166Cf enzyme; assay: Circular dichroism assay of antibiotic hydrolysis by E166Cf; assay type: biochemical; conditions: 1.0×10^−4 M antibiotic, E166Cf 1.2×10^−7 M, one hour incubation
Excerpt: The absence of a declining fluorescence signal for cefuroxime, cefoxitin and moxalactam can be ascribed to the poor hydrolytic activities of the E166Cf enzyme towards these antibiotics (very low k2 and/or k3) (FIG. 14). As a result, the cephalosporin substrates stay in the active sites. To verify this, the activities of the labeled enzyme with cefuroxime, cefoxitin and moxalactam as substrates were monitored by circular dichroism (CD) spectropolarimetry. […] Therefore, by measuring the CD signals of cefuroxime, cefoxitin and moxalactam (1.0×10^−4 M) at 258, 264 and 265 nm respectively as a function of time in the presence of E166Cf enzyme (1.2×10^−7 M), the hydrolytic activities of the labeled enzyme towards these antibiotics can be monitored.

E166Cf enzyme [7] = biological target: T2, E166Cf enzyme; assay: Time-resolved fluorescence of E166Cf enzyme with β-lactamase inhibitors; assay type: biochemical; conditions: 1.0×10^−3 M inhibitor; E166Cf 1.2×10^−7 M, 50 mM phosphate buffer pH 7.0
Experimental: Time-resolved fluorescence measurements of the E166Cf enzyme in the presence of sulbactam and clavulanate were performed on a Perkin Elmer LS50B spectrofluorometer. The excitation and emission wavelengths were set at 494 and 515 nm respectively. Both excitation and emission slit widths were set at 5 nm. All fluorescence measurements were performed at room temperature.
The fluorescence signals of the labeled enzyme (1.2×10^−7 M) obtained with sulbactam (1.0×10^−4 M) and clavulanate (1.0×10^−3 M) in 50 mM phosphate buffer (pH 7.0) are entirely different (FIGS. 18 and 19).

[8] = biological target: T6, E166C mutant of β-lactamase I (Bacillus cereus, UniProt P00809, E185C); assay: Spectrophotometric substrate hydrolysis, steady-state kinetics; assay type: biochemical; conditions: 50 mM potassium phosphate buffer pH 7.0, 20° C.
T6 construct: made in house; host or cells: B. subtilis 1A304 (φ105MU331)
T6 sequence (P00809 28-306 E185C): T2 sequence (P00809 28-306 E185C)
Experimental: as §1, §2, §3

wild-type β-lactamase I = biological target: T7, wild-type β-lactamase I (Bacillus cereus, UniProt P00809); assay: as above; assay type: biochemical; conditions: 50 mM potassium phosphate buffer pH 7.0, 20° C.
T7 construct: made in house; host or cells: B. subtilis 1A304 (φ105MU331)
Experimental: as §1, §2, §3

[9] = biological target: T8, E166Cf (fluorescein-labeled E166C mutant of β-lactamase I) (Bacillus cereus, UniProt P00809, E185C); assay: as above; assay type: biochemical; conditions: E166Cf; 50 mM potassium phosphate buffer pH 7.0, 20° C.
T8 construct: made in house; host or cells: B. subtilis 1A304 (φ105MU331); then labelled chemically
T8 sequence (P00809 28-306 E185C): T2 sequence (P00809 28-306 E185C)
Experimental: as §1, §2, §3, §7

T4 sequence (P00808 27-307): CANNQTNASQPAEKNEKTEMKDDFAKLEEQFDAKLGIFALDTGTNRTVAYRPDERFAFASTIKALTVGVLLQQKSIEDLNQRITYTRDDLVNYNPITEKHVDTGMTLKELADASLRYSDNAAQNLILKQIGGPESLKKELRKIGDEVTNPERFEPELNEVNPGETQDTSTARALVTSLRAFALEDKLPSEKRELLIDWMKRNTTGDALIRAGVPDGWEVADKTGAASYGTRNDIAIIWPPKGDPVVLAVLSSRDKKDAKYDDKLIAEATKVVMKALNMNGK
T1 sequence (P62593 24-286 limits assumed): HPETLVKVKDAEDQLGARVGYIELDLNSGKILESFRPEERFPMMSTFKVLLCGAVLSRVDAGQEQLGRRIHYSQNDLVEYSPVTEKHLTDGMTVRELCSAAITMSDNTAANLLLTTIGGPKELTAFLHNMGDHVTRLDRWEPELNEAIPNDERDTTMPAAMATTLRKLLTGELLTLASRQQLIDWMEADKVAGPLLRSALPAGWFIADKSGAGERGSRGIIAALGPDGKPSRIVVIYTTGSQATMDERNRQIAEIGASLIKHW
T5 sequence (P00809 28-306): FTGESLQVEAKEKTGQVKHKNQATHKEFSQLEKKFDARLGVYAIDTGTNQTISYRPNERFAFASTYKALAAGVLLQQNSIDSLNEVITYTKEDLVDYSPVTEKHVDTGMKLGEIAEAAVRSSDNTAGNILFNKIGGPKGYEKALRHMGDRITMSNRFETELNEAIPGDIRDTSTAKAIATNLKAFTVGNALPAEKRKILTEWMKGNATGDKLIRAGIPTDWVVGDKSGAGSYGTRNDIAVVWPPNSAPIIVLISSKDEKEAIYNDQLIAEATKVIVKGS
T3 sequence (P04190 31-257): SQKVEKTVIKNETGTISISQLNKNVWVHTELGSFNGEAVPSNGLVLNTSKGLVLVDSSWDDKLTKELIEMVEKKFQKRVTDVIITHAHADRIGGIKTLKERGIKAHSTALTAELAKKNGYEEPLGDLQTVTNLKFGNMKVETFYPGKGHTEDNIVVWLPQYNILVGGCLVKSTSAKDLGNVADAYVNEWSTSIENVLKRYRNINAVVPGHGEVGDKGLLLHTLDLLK
T7 sequence (P00809 28-306): as the sequence (P00809 28-306) above

Compound | fluorescence signal of E166Cf (beta-lactam hydrolysis) [2] | time course of E166Cf fluorescence signal at 515 nm (E166Cf enzyme [3]) | fluorescence signal of E166Cf (beta-lactam hydrolysis) (B. cereus β-lactamase II) | fluorescence signal of E166Cf (beta-lactam hydrolysis) [4] | fluorescence signal of E166Cf (beta-lactam hydrolysis) [5] | change in CD signal of antibiotic (hydrolysis by E166Cf) (E166Cf enzyme [6]) | further results
wild-type β-lactamase I (Bacillus cereus) |  |  |  |  |  |  | Km [1]: 142 ± 8 µM; kcat [1]: 5210 ± 275 s⁻¹; kcat/Km [1]: 3.7e+07 ± 4e+06 M⁻¹ s⁻¹
CO[C@@]1(NC(=O)Cc2cccs2)C(=O)N2C(C(=O)O)=C(COC(N)=O)CS[C@@H]21 [Cefoxitin, cefoxitin] | + | no subsequent decline in intensity was observed | + | + | + | no significant changes in the CD signals | 
CO[C@@]1(NC(=O)C(C(=O)O)c2ccc(O)cc2)C(=O)N2C(C(=O)O)=C(CSc3nnnn3C)CO[C@@H]21 (some centres unmarked) [Moxalactam, moxalactam] | + | no subsequent decline in intensity was observed | + | + | + | no significant changes in the CD signals | 
O=C(O)[C@H]1/C(=C/CO)O[C@@H]2CC(=O)N21 [clavulanate] |  |  |  |  |  |  | time course of E166Cf fluorescence signal at 515 nm (E166Cf enzyme [7]): instantaneous increase in fluorescence signal which declines rapidly within 200 s and then levels off to a plateau
CC1(C)S[C@@H]2[C@H](NC(=O)COc3ccccc3)C(=O)N2[C@H]1C(=O)O [Penicillin V, penicillin V] | − |  | − | − | − |  | Km [8]: 71 ± 6 µM; kcat [8]: 1.53 ± 0.03 s⁻¹; Km (wild-type β-lactamase I): 52 ± 4 µM; kcat (wild-type β-lactamase I): 2109 ± 4 s⁻¹; Km [9]: 117 ± 10 µM; kcat [9]: 2.97 ± 0.06 s⁻¹
CO/N=C(\C(=O)N[C@@H]1C(=O)N2C(C(=O)O)=C(COC(N)=O)CS[C@H]12)c1ccco1 [Cefuroxime, cefuroxime] | + | no subsequent decline in intensity was observed | − | − | + | no significant changes in the CD signals | 

Reference: patent publication US7323303B2, “Modified β-lactamases and uses thereof” (priority 2003, dated 2008)
